In ChEMBL document CHEMBL1149677, “Synthesis of fluorescent and photoaffinity-labeled derivatives of bisphenol A and their inhibitory activity toward hypoxic expression of erythropoietin” (Bioorg Med Chem Lett, 2007) one finds Activity data, which are given here for five molecules.

Type in all cases: functional, cell-based
The subject of test [1] is Hep 3B2. Description: Inhibition of erythropoietin expression in human Hep3B cells at 300 uM.
Test [2] concerns Hep 3B2. Description: Inhibition of erythropoietin expression in human Hep3B cells.
Test [3] has as its system Hep 3B2. Description: Inhibition of erythropoietin expression in human Hep3B cells at 200 uM.

Active and inactive are the calls of the source. No cut-off for these calls is given here.

In the case of `CC(C)(c1ccc(OCCNc2ccc([N+](=O)[O-])c3nonc23)cc1)c1ccc(OCCOc2ccc(C3(C(F)(F)F)N=N3)cc2)cc1`, in the test on Hep 3B2 [1], the result was Active.

Regarding `COCOc1ccc(C(C)(C)c2ccc(OCCCCNc3ccc([N+](=O)[O-])c4nonc34)cc2)cc1`, in the test on Hep 3B2 [2], the outcome was Active.

`COCOc1ccc(C(C)(C)c2ccc(OCCCCOc3ccc(C4(C(F)(F)F)N=N4)cc3)cc2)cc1`: the outcome with Hep 3B2 [2] was inactive.

In the case of `CC(C)(c1ccc(O)cc1)c1ccc(OCCCCNc2ccc([N+](=O)[O-])c3nonc23)cc1`, the outcome in the test with Hep 3B2 [2] was Active.

As for `CC(C)(c1ccc(OCCCCNc2ccc([N+](=O)[O-])c3nonc23)cc1)c1ccc(OCCCCOc2ccc(C3(C(F)(F)F)N=N3)cc2)cc1`, in the test with Hep 3B2 [3], the outcome was Active.
